Reference: PubChem BioAssay (NCI)
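Interpolation was linear, between the two tested concentrations surrounding the appropriate level; five concentrations were tested over 48 hours in 96-well plates. Abbreviation: GI50, concentration required for 50% inhibition of growth. TGI is the concentration that stops growth completely.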

Key:
Test in all cases: NCI-60 cell line screen, 48 h
A498 renal = test system: A498 renal
HCT-116 colon = test system: HCT-116 colon
HT29 colon = test system: HT29 colon
KM12 colon = test system: KM12 colon
RXF 393 renal = test system: RXF 393 renal
SN12C renal = test system: SN12C renal
SW-620 colon = test system: SW-620 colon
TK-10 renal = test system: TK-10 renal
NCI-H522 lung = test system: NCI-H522 lung
EKVX NSCLC = test system: EKVX NSCLC

COc1ccc(/C=C2/CCOC2=O)cc1
GI50 (A498 renal): 14.9 µM
TGI (A498 renal): > 100 µM
GI50 (HCT-116 colon): > 100 µM
TGI (HCT-116 colon): > 100 µM
GI50 (HT29 colon): > 100 µM
TGI (HT29 colon): > 100 µM
GI50 (KM12 colon): > 100 µM
TGI (KM12 colon): > 100 µM
GI50 (RXF 393 renal): > 100 µM
TGI (RXF 393 renal): > 100 µM
GI50 (SN12C renal): > 100 µM
TGI (SN12C renal): > 100 µM
GI50 (SW-620 colon): > 100 µM
TGI (SW-620 colon): > 100 µM
GI50 (TK-10 renal): > 100 µM
TGI (TK-10 renal): > 100 µM

COc1ccc2c(CCNS(=O)(=O)c3ccccc3)c(C(C)=O)[nH]c2c1[N+](=O)[O-]
TGI (A498 renal): > 100 µM
TGI (HCT-116 colon): > 100 µM
TGI (HT29 colon): > 100 µM
TGI (KM12 colon): > 100 µM
TGI (NCI-H522 lung): > 100 µM
TGI (SN12C renal): > 100 µM
TGI (SW-620 colon): > 100 µM

C[C@]1(O)CC(=O)[C@]2(O)C3=C(C=C[C@]2(O)C1)C(=O)c1c(O)cccc1C3=O
GI50 (A498 renal): 13 µM
TGI (A498 renal): 25.9 µM
GI50 (EKVX NSCLC): 11.6 µM
TGI (EKVX NSCLC): 23.8 µM
GI50 (HCT-116 colon): 0.649 µM
TGI (HCT-116 colon): 2.56 µM
GI50 (HT29 colon): 3.26 µM
TGI (HT29 colon): > 100 µM
GI50 (KM12 colon): 14 µM
TGI (KM12 colon): 40.7 µM
GI50 (RXF 393 renal): 1.46 µM
TGI (RXF 393 renal): 2.85 µM
GI50 (SN12C renal): 1.72 µM
TGI (SN12C renal): 3.18 µM
GI50 (SW-620 colon): 1.2 µM
TGI (SW-620 colon): 3.35 µM
GI50 (TK-10 renal): 2.27 µM
TGI (TK-10 renal): 3.97 µM

CC(=O)N1C(=O)C(=O)c2cc(Cl)ccc21
TGI (A498 renal): > 100 µM
TGI (EKVX NSCLC): > 100 µM
TGI (HT29 colon): > 100 µM
TGI (KM12 colon): > 100 µM
TGI (RXF 393 renal): > 100 µM
TGI (SN12C renal): > 100 µM
TGI (SW-620 colon): > 100 µM
TGI (TK-10 renal): > 100 µM

CCC(=O)[O-].CCC(=O)[O-].N.N.N.N.[Co+3].[O-][Cl+3]([O-])([O-])[O-]
GI50 (A498 renal): > 100 µM
TGI (A498 renal): > 100 µM
GI50 (EKVX NSCLC): > 100 µM
TGI (EKVX NSCLC): > 100 µM
GI50 (HCT-116 colon): > 100 µM
TGI (HCT-116 colon): > 100 µM
GI50 (HT29 colon): > 100 µM
TGI (HT29 colon): > 100 µM
GI50 (KM12 colon): > 100 µM
TGI (KM12 colon): > 100 µM
GI50 (NCI-H522 lung): > 100 µM
TGI (NCI-H522 lung): > 100 µM
GI50 (SN12C renal): > 100 µM
TGI (SN12C renal): > 100 µM
GI50 (SW-620 colon): > 100 µM
TGI (SW-620 colon): > 100 µM
GI50 (TK-10 renal): > 100 µM
TGI (TK-10 renal): > 100 µM

S=C(S)NCCCn1ccnc1
TGI (A498 renal): > 100 µM
TGI (EKVX NSCLC): > 100 µM
TGI (HCT-116 colon): > 100 µM
TGI (HT29 colon): > 100 µM
TGI (KM12 colon): > 100 µM
TGI (NCI-H522 lung): > 100 µM
TGI (SN12C renal): > 100 µM
TGI (SW-620 colon): > 100 µM
TGI (TK-10 renal): > 100 µM

COc1cc([N+](=O)[O-])c(S(=O)(=O)O)cc1-n1nc(-c2ccccc2)n[n+]1-c1cc(S(=O)(=O)[O-])c([N+](=O)[O-])cc1OC
TGI (EKVX NSCLC): > 100 µM
TGI (HCT-116 colon): > 100 µM
TGI (HT29 colon): > 100 µM
TGI (KM12 colon): > 100 µM
TGI (NCI-H522 lung): > 100 µM
TGI (RXF 393 renal): > 100 µM
TGI (SN12C renal): > 100 µM
TGI (SW-620 colon): > 100 µM

COc1ccc2c3c([nH]c2c1[N+](=O)[O-])C(C)N(C(=O)/C=C/c1ccccc1)CC3 (stereo unspecified)
TGI (A498 renal): 8.31 µM
TGI (EKVX NSCLC): > 100 µM
TGI (HT29 colon): > 100 µM
TGI (KM12 colon): > 100 µM
TGI (NCI-H522 lung): > 100 µM
TGI (RXF 393 renal): 24.1 µM
TGI (SN12C renal): > 100 µM
TGI (SW-620 colon): > 100 µM
TGI (TK-10 renal): > 100 µM

CP(=O)(CCSc1ccccc1)c1ccccc1 (stereo unspecified)
TGI (A498 renal): > 100 µM
TGI (EKVX NSCLC): > 100 µM
TGI (HCT-116 colon): > 100 µM
TGI (HT29 colon): > 100 µM
TGI (RXF 393 renal): > 100 µM
TGI (SN12C renal): > 100 µM
TGI (SW-620 colon): > 100 µM
TGI (TK-10 renal): > 100 µM

C/C(CC(=O)Nc1ccc(C)cc1)=N\NC(N)=S
TGI (A498 renal): > 100 µM
TGI (EKVX NSCLC): > 100 µM
TGI (HCT-116 colon): > 100 µM
TGI (HT29 colon): > 100 µM
TGI (KM12 colon): > 100 µM
TGI (NCI-H522 lung): > 100 µM
TGI (RXF 393 renal): > 100 µM
TGI (SW-620 colon): > 100 µM
TGI (TK-10 renal): > 100 µM

O=c1c2ccccc2c(C=NCCNCCO)c2oc3ccccc3n12
GI50 (EKVX NSCLC): 9.3 µM
TGI (EKVX NSCLC): 21.2 µM
GI50 (HT29 colon): 3.33 µM
TGI (HT29 colon): 16.5 µM
GI50 (KM12 colon): 10.4 µM
TGI (KM12 colon): 22.1 µM
GI50 (NCI-H522 lung): 16.7 µM
TGI (NCI-H522 lung): 37.7 µM
GI50 (RXF 393 renal): 4.96 µM
TGI (RXF 393 renal): 22.6 µM
GI50 (SN12C renal): 4.34 µM
TGI (SN12C renal): 18.3 µM
GI50 (SW-620 colon): 4.63 µM
TGI (SW-620 colon): 17 µM
GI50 (TK-10 renal): 2.73 µM
TGI (TK-10 renal): 9.61 µM

CC1=C(CC/C(C)=C/CCC2(C)CCC([C@H](C)C(=O)O)OO2)C(C)(C)CCC1 (stereo partly specified) (tested in a mixture with another compound)
TGI (EKVX NSCLC): > 100 µM
TGI (HCT-116 colon): > 100 µM
TGI (HT29 colon): > 100 µM
TGI (KM12 colon): > 100 µM
TGI (NCI-H522 lung): > 100 µM
TGI (RXF 393 renal): > 100 µM
TGI (SN12C renal): > 100 µM
TGI (SW-620 colon): > 100 µM
TGI (TK-10 renal): > 100 µM

Cn1c(-c2c(N)n(Cc3ccc(Cl)cc3)c3nc(C#N)c(C#N)nc23)nc2ccccc21
GI50 (EKVX NSCLC): 7.04 µM
TGI (EKVX NSCLC): 46.1 µM
GI50 (HCT-116 colon): 8.52 µM
TGI (HCT-116 colon): > 50 µM
GI50 (KM12 colon): 2.76 µM
TGI (KM12 colon): 32.2 µM
GI50 (NCI-H522 lung): 2.83 µM
TGI (NCI-H522 lung): 15.6 µM
GI50 (RXF 393 renal): 0.567 µM
TGI (RXF 393 renal): 4.67 µM
GI50 (SN12C renal): 2.57 µM
TGI (SN12C renal): 10.3 µM
GI50 (SW-620 colon): 5.26 µM
TGI (SW-620 colon): > 50 µM
GI50 (TK-10 renal): 6.9 µM
TGI (TK-10 renal): 15.8 µM

CC(=O)c1ccc(NCn2nc(-c3ccccc3O)oc2=S)cc1
GI50 (EKVX NSCLC): > 100 µM
TGI (EKVX NSCLC): > 100 µM
GI50 (HCT-116 colon): > 100 µM
TGI (HCT-116 colon): > 100 µM
GI50 (HT29 colon): 47 µM
TGI (HT29 colon): > 100 µM
GI50 (KM12 colon): > 100 µM
TGI (KM12 colon): > 100 µM
GI50 (NCI-H522 lung): > 100 µM
TGI (NCI-H522 lung): > 100 µM
GI50 (RXF 393 renal): 24.6 µM
TGI (RXF 393 renal): 72.8 µM
GI50 (SN12C renal): 27 µM
TGI (SN12C renal): 64.9 µM
GI50 (SW-620 colon): 29.8 µM
TGI (SW-620 colon): > 100 µM
GI50 (TK-10 renal): 67.1 µM
TGI (TK-10 renal): > 100 µM

O=C(/C=C/c1ccccc1)c1ccc(O)c(CN2CCN(c3cc4c(cc3F)c(=O)c(C(=O)O)cn4C3CC3)CC2)c1
GI50 (A498 renal): 0.941 µM
TGI (A498 renal): 4.93 µM
GI50 (EKVX NSCLC): 3.66 µM
TGI (EKVX NSCLC): > 100 µM
GI50 (HCT-116 colon): 0.43 µM
TGI (HCT-116 colon): > 100 µM
GI50 (HT29 colon): 1.58 µM
TGI (HT29 colon): > 100 µM
GI50 (KM12 colon): 1.69 µM
TGI (KM12 colon): 21 µM
GI50 (NCI-H522 lung): 2.42 µM
TGI (NCI-H522 lung): > 100 µM
GI50 (RXF 393 renal): 1.55 µM
TGI (RXF 393 renal): 15.8 µM
GI50 (SW-620 colon): 2.28 µM
TGI (SW-620 colon): > 100 µM
GI50 (TK-10 renal): 6.37 µM
TGI (TK-10 renal): > 100 µM

NC(N)=NS(=O)(=O)c1ccc(NC(=O)c2ccc(Cl)c3c(Nc4ccc(S(=O)(=O)N=C(N)N)cc4)c4ccccc4nc23)cc1
TGI (A498 renal): > 100 µM
TGI (EKVX NSCLC): > 100 µM
TGI (HT29 colon): > 100 µM
TGI (KM12 colon): > 100 µM
TGI (NCI-H522 lung): > 100 µM
TGI (RXF 393 renal): > 100 µM
TGI (SN12C renal): > 100 µM
TGI (SW-620 colon): > 100 µM

CN1NC(c2ccccc2)=C(C#N)C(=O)CC1c1ccccc1Cl (stereo unspecified)
TGI (HCT-116 colon): > 100 µM
TGI (HT29 colon): > 100 µM
TGI (KM12 colon): > 100 µM
TGI (NCI-H522 lung): > 100 µM
TGI (RXF 393 renal): > 100 µM
TGI (SN12C renal): > 100 µM
TGI (SW-620 colon): > 100 µM
TGI (TK-10 renal): > 100 µM

S=C1SC2(CCCCCC2)NC2=C1CCCCC2
TGI (EKVX NSCLC): 44.2 µM
TGI (HCT-116 colon): > 100 µM
TGI (HT29 colon): > 100 µM
TGI (KM12 colon): > 100 µM
TGI (RXF 393 renal): > 100 µM
TGI (SN12C renal): > 100 µM
TGI (SW-620 colon): > 100 µM
TGI (TK-10 renal): > 100 µM
